These results are taken from patent US12071414B2, “Apelin receptor agonists and methods of use thereof” (Sanford Burnham Prebys Medical Discovery Institute, priority 2015, dated 2024).

pEC50: −log10 of the molar value.

For the first assay, the system named is isolated rat heart.
Experiment: not given
As to conditions: read-out: EC50 of positive inotropic effect, in rats, infusion; cited from earlier work.
With apelin-16, the negative logarithm of the EC50 (pEC50) was around 10.48.

Another assay has as its target T1, human apelin receptor (APJ, AGTRL-one, APLNR) (Homo sapiens, UniProt P35414).
T1 construct: host or cells: Chinese hamster ovary cells, stably integrated receptor
T1 sequence (P35414 1-380): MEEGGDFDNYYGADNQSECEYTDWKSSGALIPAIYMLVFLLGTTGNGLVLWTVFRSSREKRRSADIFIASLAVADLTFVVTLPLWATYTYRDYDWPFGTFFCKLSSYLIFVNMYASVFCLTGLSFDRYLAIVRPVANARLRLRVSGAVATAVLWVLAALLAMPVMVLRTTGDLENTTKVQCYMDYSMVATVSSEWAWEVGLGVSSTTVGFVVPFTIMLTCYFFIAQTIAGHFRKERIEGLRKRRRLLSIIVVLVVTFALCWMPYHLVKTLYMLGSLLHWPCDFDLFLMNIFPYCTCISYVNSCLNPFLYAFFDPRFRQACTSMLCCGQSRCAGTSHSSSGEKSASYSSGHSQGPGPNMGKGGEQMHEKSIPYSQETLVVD
In words: cell-based cAMP TR-FRET assay of apelin receptor activation. The settings on record: CHO cells expressing human APJ, forskolin-stimulated cAMP, 0.5 h incubation, 50% of control (apelin-13, 1 nM) response; read-out: Potency Category (EC50). The method, boiled down:
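CHO cells stably expressing human APJ were stimulated to raise cAMP, then incubated 0.5 h with compound (0.0-100 μM, ≤1% DMSO). Lysed cAMP measured by competitive TR-FRET immunoassay; efficacy as % of 1 nM apelin-13 response, potency from four-point logistic fit over ≥10 concentrations.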
As to `COc1cc2nc(NC(=O)C(Oc3ccc(C#N)cc3)c3ccc(C(=O)NCCN4CCOCC4)cc3)sc2cc1OC` (stereo not shown), the pEC50 is 6.70 to 7.00. Consider `CCS(=O)(=O)c1ccc(C(Oc2cccc(OC)c2)C(=O)Nc2nc3cc(OC)c(OC)cc3s2)cc1` (stereo not shown), for which the pEC50 was below 6.30.

For `CCS(=O)(=O)c1ccc(C(Oc2ccc(C#N)cc2)C(=O)Nc2nc3ccc(N4CCN(C)CC4)cc3s2)cc1` (stereo not shown), the negative-log EC50 (pEC50) is below 6.30. Same read-out and setting: as for `COc1cc2nc(NC(=O)C(Oc3ccc(C#N)cc3)c3ccc(C(=O)NCCN4CCCC4)cc3)sc2cc1OC` (stereo not shown), the figure is 6.30 to 6.70; as for `COc1cc2nc(NC(=O)C(Oc3ccc(C#N)cc3)c3ccccc3)sc2cc1OC` (stereo not shown), 6.70 to 7.00; as for `CCS(=O)(=O)c1cccc(C(Oc2ccc(OC)cc2)C(=O)Nc2nc3cc(OC)c(OC)cc3s2)c1` (stereo not shown), below 6.30. Still for that read-out and setting: the figure for `COCCNS(=O)(=O)c1ccc(C(Oc2ccc(C#N)cc2)C(=O)Nc2nc3cc(OC)c(OC)cc3s2)cc1` (stereo not shown) is 6.30 to 6.70; for `COc1cc2nc(NC(=O)C(Oc3ccc(C#N)cc3)c3ccc(OCCN4CCCCC4)cc3)sc2cc1OC` (stereo not shown) it is 6.30 to 6.70. For the compound `CCS(=O)(=O)c1ccc(C(Oc2ccc(C#N)cc2)C(=O)Nc2cc3cc(OC)c(OC)cc3[nH]2)cc1` (stereo not shown), the pEC50 was below 6.30. Still for that read-out and setting: as for `COc1cc2nc(NC(=O)C(Oc3ccc(C(=O)O)cc3)c3ccc(C#N)cc3)sc2cc1OC` (stereo not shown), the figure is below 6.30; as for `COc1cc2nc(NC(=O)C(Oc3ccc(C#N)cc3)c3ccc(OCCN4CCCC4)cc3)sc2cc1OC` (stereo not shown), 6.30 to 6.70.

As for `CCS(=O)(=O)c1ccc(C(Oc2ccc(C#N)cc2)C(=O)Nc2nc3ccccc3o2)cc1` (stereo not shown), the negative logarithm of the EC50 (pEC50) was below 6.30.

Take `CCS(=O)(=O)c1ccc(C(Oc2ccc(OC)cc2)C(=O)Nc2nc3ccc(OC)cc3s2)cc1` (stereo not shown): the negative-log EC50 (pEC50) is below 6.30. Regarding `CCS(=O)(=O)c1ccc(C(Oc2ccc(C#N)cc2)C(=O)Nc2nc3ccc4c(c3s2)OCO4)cc1` (stereo not shown), the negative-log EC50 (pEC50) is below 6.30. Still for that read-out and setting: as for `COc1cc2nc(NC(=O)C(Oc3ccc(C#N)cc3)c3ccc(S(=O)(=O)NCCN(C)C)cc3)sc2cc1OC` (stereo not shown), the figure is above 7.30; as for `COc1cc2nc(NC(=O)C(Oc3ccc(C(=O)N4CCNCC4)cc3)c3ccc(C#N)cc3)sc2cc1OC` (stereo not shown), above 7.30. The same measure, in the same setting: as for `CCS(=O)(=O)c1ccc(C(NCC(C)C)C(=O)Nc2nc3cc(OC)c(OC)cc3s2)cc1` (stereo not shown), the figure is below 6.30; as for `CCS(=O)(=O)c1ccc(C(Oc2ccc(OC)cc2)C(=O)Nc2nc3cc(OC)c(OC)cc3s2)cc1` (stereo not shown), below 6.30; as for `COc1cc2nc(NC(=O)C(Oc3ccc(-c4nnn[nH]4)cc3)c3ccc(C#N)cc3)sc2cc1OC` (stereo not shown), below 6.30. Regarding `CCS(=O)(=O)c1ccc(C(Oc2ccc(C#N)cc2)C(=O)Nc2nc3cc4c(cc3s2)OCCO4)cc1` (stereo not shown), the negative-log EC50 (pEC50) was below 6.30. Still for that read-out and setting: as for `CCS(=O)(=O)c1ccc(C(Oc2ccc(C3CCCCC3)cc2)C(=O)Nc2nc3cc(OC)c(OC)cc3s2)cc1` (stereo not shown), the figure is below 6.30; as for `CCS(=O)(=O)c1ccc(C(Nc2ccccc2OC)C(=O)Nc2nc3cc(OC)c(OC)cc3s2)cc1` (stereo not shown), below 6.30. For `CCS(=O)(=O)c1ccc(C(Nc2ccc(OC)cc2)C(=O)Nc2nc3cc(OC)c(OC)cc3s2)cc1` (stereo not shown), the pEC50 is below 6.30. On the same count and under the same terms, the figure for `CCS(=O)(=O)c1ccc(CC(=O)Nc2nc3c(OC)ccc(OC)c3s2)cc1` is below 6.30; for `CCS(=O)(=O)c1ccc(C(Oc2ccc(C#N)cc2)C(=O)Nc2nc3c4c(ccc3s2)OCCO4)cc1` (stereo not shown) it is below 6.30. Still for that read-out and setting: the figure for `COc1cc2nc(NC(=O)C(Oc3ccc(C#N)cc3)c3ccc(C(=O)N(C)C)cc3)sc2cc1OC` (stereo not shown) is above 7.30.

Take `COc1cc2nc(NC(=O)C(Oc3ccc(C#N)cc3)c3ccccc3S(=O)(=O)C(C)C)sc2cc1OC` (stereo not shown): the negative-log EC50 (pEC50) was 6.70 to 7.00.

For `CCS(=O)(=O)c1ccc(C(Oc2ccccc2I)C(=O)Nc2nc3cc(OC)c(OC)cc3s2)cc1` (stereo not shown), the negative logarithm of the EC50 (pEC50) is 6.30 to 6.70. Still for that read-out and setting: as for `CCS(=O)(=O)c1ccc(C(Oc2ccc(C(=O)O)cc2)C(=O)Nc2nc3cc(OC)c(OC)cc3s2)cc1` (stereo not shown), the figure is below 6.30. As for `CCS(=O)(=O)c1ccc(CC(=O)Nc2nc3cc(N(C)C)ccc3s2)cc1`, the negative-log EC50 (pEC50) is below 6.30. Same read-out and setting: the figure for `COc1cc2nc(NC(=O)C(Oc3ccc(C(=O)NCCN(C)C)cc3)c3ccc(C#N)cc3)sc2cc1OC` (stereo not shown) is 7.00 to 7.30; for `CCS(=O)(=O)c1ccc(C(OCCOC)C(=O)Nc2nc3cc(OC)c(OC)cc3s2)cc1` (stereo not shown) it is below 6.30.

The test system of another assay is heart.
Experiment: not given
As to conditions: read-out: EC50 of positive inotropic effect; in humans; cited from earlier work.
Regarding apelin-16, the pEC50 was 9.90 to 10.40.
